Tested on: iPSC-ECs
Assay: Senescence associated β-galactosidase staining
Format: cell-based
Protocol: Nitric oxide (NO) production was assessed via 4,5-diaminofluorescein.diacetate (DAF 2-DA) assay (Life Technologies). Cell mitogenic effect in response to VEGF (100 ng/ml) was assessed via MTT assay (Sigma-Aldrich) after treating cells in serum-free (starvation) medium, or starvation medium containing 100 ng/ml VEGF for 24 hours. Cell proliferation was determined by counting cell number every seven days after lentiviral transduction using a hemocytometer by excluding dead cells with Trypan blue. […] All results were normalized to cell number via Alamar blue assay (Sigma-Aldrich).Cellular senescence assay kit (Cell Signaling Technology, Danvers, Mass.) was used to stain for senescence associated β-galactosidase (β-gal) in the presence or absence of Ex-527 (10 μM), a SIRT1 inhibitor, and the percentage of β-gal positive cells was quantified with ImageJ. […]
Cellular senescence assay kit (Cell Signaling Technology, Danvers, Mass.) was used to stain for β-galactosidase (β-gal) in the presence or absence of Ex-527 (10 μM), a SIRT1 inhibitor (18), and the percentage of β-gal positive cells was quantified with ImageJ. […] Cell proliferation was determined by counting cell number every seven days after lentiviral transduction using a hemocytometer by excluding dead cells with Trypan blue. […] NO production was assessed via 4,5-diaminofluorescein.diacetate (DAF 2-DA) assay (Life Technologies). […]

## NC(=O)C1CCCc2c1[nH]c1ccc(Cl)cc21 (centres unmarked) [Ex-527]
10 μM Ex-527, LV-empty transduced cells, passage 6
  β-gal+ (senescent) cells: 56.0±6.2%
10 μM Ex-527, all lentiviral groups
  effect on percentage of senescent cells: higher percentage of senescent cells in all groups

Reference: patent US20180201899A1, “IPSC-EC PERFORMANCE ENHANCEMENT VIA SIRT1 OVEREXPRESSION” (Northwestern University, priority 2015, published 2018)
